Data set [1] has as its system interaction between H19 and DMD. The data set can be described thus: RIP assay in iPSC-SkMC. Format: cell-based, human. Conditions: for interaction between H19 and DMD: iPSC-SkMC from healthy donor 09503 or BMD patient 02298; for interaction between HuR and Actin: specificity control.
The next data set deals with iPSC-SkMC. The data set can be described thus: Immunoblot of DMD, phosphorylated DMD and Ub-DMD in iPSC-SkMC. Format: cell-based, human. The following applies: for DMD phosphorylation / DMD protein levels / Ub-DMD: BMD iPSC-SkMC. The text has this: The human skin fibroblasts GM09503 (healthy donor), GM02298 (BMD patient), or GM04569 (BMD patient) were obtained from the Coriell Institute and reprogramed to iPSC by Baylor Human Stem Cell Core. Clinical information is summarized in Additional file 2: Table S2. iPSCs from patients with BMD were used to study the potential molecular mechanisms of DMD stability within pathological context. iPSCs were maintained in feeder-free conditions using the mTeSR™1 medium (Stemcell technologies) on hESC-Qualified Matrigel (Corning) coated plates at 37 °C with 5% CO2. H19 knockout iPSC cell lines were generated using the CRISPR-Cas9 genome editing system, as described previously. iPSCs transfected with sgRNAs were selected with puromycin (250 ng/ml) for 7 days. Emerging iPSC colonies were picked individually and further expanded in mTeSR™1 medium. The presence of targeted gene knockout was confirmed by further genotyping characterization and PCR product sequencing.
For myogenic differentiation, iPSCs were differentiated into skeletal muscle cells using Skeletal Muscle Differentiation Kit (Genea Biocells) according to the manufacturer’s protocol. Briefly, iPSCs were plated onto a collagen I coated plate and maintained for 6–10 days in Skeletal Muscle Induction Medium (Genea Biocells) until confluent. Dissociated myogenic precursors were then plated on a collagen I coated plate and cultured in Skeletal Myoblast Medium (Genea Biocells) for 6–8 days. When confluent, cells were maintained in Myotube Medium or Myotube Fusion Medium (Genea Biocells). Cryopreserved stocks of myoblasts Genea002 were obtained from Genea Biocells. Genea002 was initially maintained in Skeletal Myoblast Medium and changed to Myotube Medium or Myotube Fusion Medium when confluent.
(In western blotting, separated proteins are transferred to a membrane and probed.)

A further data set deals with MRCKα. The following applies: cited from earlier work. The text has this: (§1) SNCA plays important roles in Parkinson’s disease through mediating the aggregation of protofibrils. […] MRCKα is a se ...
The test system of a further data set is SNCA. Conditions: cited from earlier work.
Source text: as §1

Data set [2] has as its target T1, DMD C-terminus (ZnF domain) WT (human, UniProt P11532 3046-3685). The experiment in a line: alpha assay competition. Conditions: EMSA and RNA-protein binding: 50 mM Tris-HCl pH 7.9, 10% glycerol, 100 mM KCl, 5 mM MgCl2, 10 mM beta-ME, 0.1% NP-40, 30 C, 30 min (EMSA) or 1 h (dot blot) …. (In EMSA bound probe runs differently from free probe, usually more slowly.)
In a further data set the test system is C57BL/6 J mice. The data set can be described thus: RT-qPCR of H19 and Dmd in TA of treated mice. In kind it is in vivo, mouse. Conditions: male mice, n = 5. The method, then:
Total RNA was isolated from the snap-frozen samples using the RNeasy Plus Mini Kit (Qiagen). cDNA was synthesized from 1 μg of RNA using the iScript™ cDNA Synthesis Kit (Bio-Rad). Quantitative real-time PCR was performed using SsoAdvanced™ Universal SYBR® Green Supermix (Bio-Rad).

In data set [3] the target is T1, DMD C-terminus (ZnF domain) WT. The experiment in a line: alpha assay saturation. Conditions: EMSA and RNA-protein binding: 50 mM Tris-HCl pH 7.9, 10% glycerol, 100 mM KCl, 5 mM MgCl2, 10 mM beta-ME, 0.1% NP-40, 30 C, 30 min (EMSA) or 1 h (dot blot) ….
Data set [4] has the same target. The experiment in a line: alpha assay competition; EMSA and RNA-protein binding: 50 mM Tris-HCl pH 7.9, 10% glycerol, 100 mM KCl, 5 mM MgCl2, 10 mM beta-ME, 0.1% NP-40, 30 C, 30 min (EMSA) or 1 h (dot blot); alpha assay conditions not in the material. The following applies: protein: recombinant, tags: His, label: 32P (EMSA), single strand.

T1 sequence (P11532 3046-3685): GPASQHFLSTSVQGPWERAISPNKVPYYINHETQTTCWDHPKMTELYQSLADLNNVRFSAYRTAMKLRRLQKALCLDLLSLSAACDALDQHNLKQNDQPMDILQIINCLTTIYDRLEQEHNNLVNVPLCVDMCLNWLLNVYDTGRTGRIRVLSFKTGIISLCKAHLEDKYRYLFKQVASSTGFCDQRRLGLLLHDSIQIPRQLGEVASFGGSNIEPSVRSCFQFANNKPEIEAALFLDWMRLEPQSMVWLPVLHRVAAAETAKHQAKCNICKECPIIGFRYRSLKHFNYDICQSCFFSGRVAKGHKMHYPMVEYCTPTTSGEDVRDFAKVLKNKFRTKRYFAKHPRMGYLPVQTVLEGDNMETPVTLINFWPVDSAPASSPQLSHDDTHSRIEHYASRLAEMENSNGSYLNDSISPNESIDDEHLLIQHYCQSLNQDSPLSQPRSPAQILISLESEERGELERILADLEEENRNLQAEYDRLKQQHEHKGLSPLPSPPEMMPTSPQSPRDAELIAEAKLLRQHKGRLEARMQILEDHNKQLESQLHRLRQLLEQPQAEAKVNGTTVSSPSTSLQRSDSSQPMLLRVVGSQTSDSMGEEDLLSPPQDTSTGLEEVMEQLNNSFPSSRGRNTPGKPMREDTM

What is called IC50 is the concentration that inhibits the measured activity by half. In the case of `O=C(Nc1cn[nH]c1-c1ccccn1)c1nn(C2CCNCC2)cc1Cl` [BDP5290], in data set [1], the “interaction between H19 and DMD” value is recorded as “significantly improved”; the “interaction between HuR and Actin” value is “minimal effects”. Besides, in the data set on iPSC-SkMC, the DMD phosphorylation entry is recorded as “reduced”, the DMD protein levels result was “improved” and the Ub-DMD result is on record as “reduced”. The IC50 with MRCKα is 10 nM.

As for `N#Cc1c(C(F)(F)F)c([N+](=O)[O-])c(-c2cccc([N+](=O)[O-])c2)[nH]c1=O` [SC-D, SynuClean-D], in data set [1], the “interaction between H19 and DMD” value is reported as “significantly improved”; the “interaction between HuR and Actin” value was “minimal effects”. For the same molecule, in the data set on iPSC-SkMC, the DMD phosphorylation result was “reduced”, the DMD protein levels entry is recorded as “improved” and the Ub-DMD entry is listed as “reduced”. Also, the “phosphorylation of DMD” value with iPSC-SkMC (iPSC-SkMC with exogenous expression of SNCA) was “attenuated”. In addition, the “SNCA aggregation in muscle tissues” value in the data set with SNCA is recorded as “reduces”.

Broadly, the Kd is the concentration at which binding is half-saturated. In data set [2], H19-WT mimic showed a Kd of 130 nM.

In the case of “N-terminal-ELTNEIPAELTNEIPA-Linker-5'-[2'-F-U][2'-F-G][2'-F-G][2'-F-C][2'-F-C][2'-F-A][2'-F-A][2'-F-U][2'-F-G][2'-F-C][2'-F-C][2'-F-C][2'-F-U][2'-F-G][2'-F-G][2'-F-C][2'-F-U][2'-F-C][2'-F-A][2'-F-C][2'-F-A][2'-F-A][2'-F-A][2'-F-U][2'-F-A][2'-F-C][2'-F-C][2'-F-A][2'-F-C][2'-F-U]-3' [AGR-Scr, agrin peptide conjugated to scramble oligonucleotides; control, reference compound]”, in the data set with C57BL/6 J mice, the “expression of H19 in TA” value is reported as “minimal effects” and the “expression of the Dmd transcript in TA” value was “minimal effects”.

As for “N-terminal-ELTNEIPAELTNEIPA-Linker-5'-[2’-F-C][2’-F-U][2’-F-C][2’-F-U][2’-F-U][2’-F-A][2’-F-C][2’-F-A][2’-F-A][2’-F-U][2’-F-C][2’-F-U][2’-F-G][2’-F-A][2’-F-G][2’-F-C][2’-F-U][2’-F-U][2’-F-U][2’-F-C][2’-F-C][2’-F-A][2’-F-C][2’-F-A][2’-F-G][2’-F-U][2’-F-U][2’-F-U][2’-F-C][2’-F-C]-3' [AGR-H19-Rlof, agrin peptide conjugated to H19 RNA loss-of-function mimic]”, in the data set on C57BL/6 J mice, the “expression of H19 in TA” value was “minimal effects” and the “expression of the Dmd transcript in TA” value is on record as “minimal effects”.

As for human H19 sense transcript, the Kd in data set [3] is 71.1 nM.

For the molecule mouse H19 sense transcript, in data set [3], the equilibrium dissociation constant (Kd) stood at 78.6 nM.

Consider CUUUAUUUCUGAGCUUUCCUAUCUUUCCUU (ssRNA) [hH19 1951-1980 Rgof (G1955A/G1971A)], for which the Kd in data set [4] is 14.9 nM.

On to CUUUGUUUCUGAGCUUUCCUGUCUUUCCUU (ssRNA) [hH19 1951-1980 WT], for which the Kd in data set [4] (biotin or unlabeled (alpha assay)) amounted to 116 nM.
